Measurements as given in patent US3974140A, “Ureidoacetamido-penicillins” (Bayer Aktiengesellschaft, priority 1970, dated 1976).

Experiments:
Klebsiella 63 = assay: MIC, liquid medium test tube series dilution test; type: cell-based; conditions: Klebsiella 63, 24 hours, 37°C
Outline: (§1)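 Tube dilution, liquid complete medium, 37°C/24 h; MIC = non-turbid tube; units/ml.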

E. coli = assay: MIC, liquid medium test tube series dilution test; type: cell-based; conditions: strain not given, 24 hours
Outline: as §1

E. coli 14 = assay: MIC, liquid medium test tube series dilution test; type: cell-based; conditions: E. coli 14, 24 hours, 37°C
Outline: as §1

E. coli C 165 = assay: MIC, liquid medium test tube series dilution test; type: cell-based; conditions: E. coli C 165, 24 hours, 37°C
Outline: as §1

E. coli A 261 = assay: MIC, liquid medium test tube series dilution test; type: cell-based; conditions: E. coli A 261, 24 hours, 37°C
Outline: as §1

Klebsiella K 10 = assay: MIC, liquid medium test tube series dilution test; type: cell-based; conditions: Klebsiella K 10, 24 hours, 37°C
Outline: as §1

E. coli 183/58 = assay: MIC, liquid medium test tube series dilution test; type: cell-based; conditions: E. coli 183/58, 24 hours, 37°C
Outline: as §1

[1] = tested on: Streptoc. faec. ATCC 9790; assay: MIC, liquid medium test tube series dilution test; type: cell-based; conditions: Strep. faec. (Enterococcus) ATCC 9790, 24 hours, 37°C
Outline: as §1

Staph. aureus 133 [2] = assay: MIC, liquid medium test tube series dilution test; type: cell-based, Staphylococcus aureus; conditions: Staph. aureus 133, 24 hours, 37°C
Outline: as §1

Staph. aureus 133 [3] = assay: Surviving mice after intraperitoneal infection and subcutaneous therapy; type: in vivo, white mice, CF1 strain; conditions: 2 × 200 units/mouse s.c.
Protocol: (§2) The experiments on animals (see Table 3) were carried out with white mice of the CF1 strain. The infection took place intraperitoneally with the particular bacterium indicated.

Proteus vulg. 1017 = assay: MIC, liquid medium test tube series dilution test; type: cell-based, Proteus vulgaris; conditions: Proteus vulg. 1017, 24 hours, 37°C
Outline: as §1

Proteus vulg. 3400 = assay: MIC, liquid medium test tube series dilution test; type: cell-based, Proteus vulgaris; conditions: Proteus vulg. 3400, 24 hours, 37°C
Outline: as §1

Psdm. aerug. Walter [4] = assay: MIC, liquid medium test tube series dilution test; type: cell-based, Pseudomonas aerug.; conditions: 24 hours, 37°C
Outline: as §1

Psdm. aerug. Bonn = assay: MIC, liquid medium test tube series dilution test; type: cell-based, Pseudomonas aerug.; conditions: 24 hours, 37°C
Outline: as §1

Staph. aureus 1777 E = assay: MIC, liquid medium test tube series dilution test; type: cell-based, Staphylococcus aureus; conditions: 24 hours, 37°C
Outline: as §1

Psdm. aerug. Walter [5] = assay: Surviving mice after intraperitoneal infection and subcutaneous therapy; type: in vivo, white mice, CF1 strain; conditions: compared with carbenicillin
Protocol: as §2

MIC (Staph. aureus 1777 E)	Compound	MIC (Klebsiella 63)	Effectiveness (MIC) (E. coli) [units/ml]	MIC (E. coli 14) [units/ml]	MIC (E. coli C 165) [units/ml]	MIC (E. coli A 261)	MIC (Klebsiella K 10)	MIC (E. coli 183/58) [units/ml]	MIC [1]	MIC (Staph. aureus 133 [2]) [units/ml]	Number of surviving mice (Staph. aureus 133 [3]; 1 day) [%]	Number of surviving mice (Staph. aureus 133 [3]; 2 days) [%]	Number of surviving mice (Staph. aureus 133 [3]; 3 days) [%]	Number of surviving mice (Staph. aureus 133 [3]; 5 days) [%]	MIC (Proteus vulg. 1017)	MIC (Proteus vulg. 3400)	MIC (Psdm. aerug. Walter [4])	MIC (Psdm. aerug. Bonn)	Effectiveness in animal experiments against Pseudomonas aerug. Walter (Psdm. aerug. Walter [5])
–	Cc1ccc(C(=O)N(C)C(=O)N[C@@H](C(=O)N[C@@H]2C(=O)N3[C@@H]2SC(C)(C)[C@@H]3C(=O)O)c2ccccc2)cc1 [Example 73, Sodium D(-)-α-(3-p-methylbenzoyl-3-methyl-ureido)-benzylpenicillin]	12.5-25 units/ml	312	3.12	6.25	200-400 units/ml	25-50 units/ml	1.56	50-100 units/ml	0.78	80	70	50	40	6.25 units/ml	12.5 units/ml	~ 50 units/ml	12.5 units/ml	–
20-100 units/ml	CN(C(=O)N[C@@H](C(=O)N[C@@H]1C(=O)N2[C@@H]1SC(C)(C)[C@@H]2C(=O)O)c1ccccc1)C(=O)c1ccccc1Cl [Example 107]	4-20 units/ml	–	< 0.8	< 0.8	–	~ 4 units/ml	< 0.8	4-20 units/ml	< 0.8	–	–	–	–	0.8-4 units/ml	0.8-4 units/ml	0.8-4 units/ml	0.8-4 units/ml	better than carbenicillin
